System: cholesterol absorption (serum 3H-cholesterol)
Assay: In Vivo Assay of Hypolipidemic Agents using the Rat Cholesterol Absorption Model
Design: species or system Sprague-Dawley rats
Conditions: peroral; for inhibition in vivo at 1 mg/kg: po, serum 3H-cholesterol 3 h after cholesterol dose, vs vehicle control
Experimental: In Vivo Assay of Hypolipidemic Agents using the Rat Cholesterol Absorption Model. This model is based on models described by Burnett et al (2002), Bioorg. Med. Chem. Lett. 2002 Feb. 11;12(3):315-8 and J. Lipid Res. 1999 October;40(10):1747-57. Female Sprague-Dawley rats weighing 150-250 g are separated into groups of […] and fasted overnight. The animals (4-6/group) are dosed perorally with 300 μL test compounds in olive oil or suitable vehicle. Thirty minutes later, 3-5 microCuries ^3H-cholesterol per rat are delivered perorally in 300 μL olive oil. After three hours, 200 μL serum is collected, vortexed with scintillation fluid, and measured for radioactivity in a scintillation counter. Percent inhibition is defined as 100*(1−Ctest/Cctrl), where Ctest and Cctl refer to ^3H levels in serum for the test compound and for the vehicle only control, respectively. Percent inhibition values are reported for a fixed dose. The ED50 is the dose at which the half-maximal effect on serum ^3H levels is observed for a given test compound.
Representative compounds of the invention were tested in the Rat Cholesterol Absorption model above.

| SMILES | inhibition in vivo at 1 mg/kg [%] | also measured |
| --- | --- | --- |
| O=C1[C@H](CC[C@H](O)c2ccc(F)cc2)[C@@H](c2ccc(-c3cccc([C@@H]4O[C@H](CO)[C@@H](O)[C@H](O)[C@H]4O)c3)cc2)N1c1ccccc1 [Example 64, (1S)-1,5-Anhydro-1-(4′-{(2S,3R)-3-[(3S)-3-(4-fluorophenyl)-3-hydroxypropyl]-4-oxo-1-phenylazetidin-2-yl}biphenyl-3-yl)-D-glucitol] | 67 |  |
| O=C1[C@H](CC[C@H](O)c2ccc(F)cc2)[C@@H](c2ccc(-c3cccc([C@H](O)[C@H]4OC(O)[C@H](O)[C@@H](O)[C@@H]4O)c3)cc2)N1c1ccccc1 (stereo partly drawn) [Example 71, (6S)-6-C-(4′-{(2S,3R)-3-[(3S)-3-(4-Fluorophenyl)-3-hydroxypropyl]-4-oxo-1-phenylazetidin-2-yl}biphenyl-3-yl)-D-glucopyranose] | 65 |  |
| O=C1[C@H](CC[C@H](O)c2ccc(F)cc2)[C@@H](c2ccc(-c3ccc4ccccc4c3)cc2)N1c1ccc(F)cc1 [Example 91, (3R,4S)-1-(4-fluorophenyl)-3-[(3S)-3-(4-fluorophenyl)-3-hydroxypropyl]-4-[4-(2-naphthyl)phenyl]azetidin-2-one] | 56 |  |
| CC(C)Oc1cccc(-c2ccc([C@@H]3[C@@H](CC[C@H](O)c4ccc(F)cc4)C(=O)N3c3ccc(F)cc3)cc2)c1 [Example 105, (3R,4S)-1-(4-fluorophenyl)-3-[(3S)-3-(4-fluorophenyl)-3-hydroxypropyl]-4-(3′-isopropoxybiphenyl-4-yl)azetidin-2-one] | 15 |  |
| CN(C)c1cccc(-c2ccc([C@@H]3[C@@H](CC[C@H](O)c4ccc(F)cc4)C(=O)N3c3ccc(F)cc3)cc2)c1 [Example 83, (3R,4S)-4-[3′-(dimethylamino)biphenyl-4-yl]-1-(4-fluorophenyl)-3-[(3S)-3-(4-fluorophenyl)-3-hydroxypropyl]azetidin-2-one] | 38 |  |
| O=C1[C@H](CC[C@H](O)c2ccc(F)cc2)[C@@H](c2ccc(-c3cccc(P(=O)(O)O)c3)cc2)N1c1ccccc1 [Example 56, (4′-{(2S,3R)-3-[(3S)-3-(4-Fluorophenyl)-3-hydroxypropyl]-4-oxo-1-phenylazetidin-2-yl}biphenyl-3-yl)phosphonic acid] | 59 |  |
| COc1ccc(-c2ccc([C@@H]3[C@@H](CC[C@H](O)c4ccc(F)cc4)C(=O)N3c3ccc(F)cc3)cc2)cc1OC [Example 81, (3R,4S)-4-(3′,4′-dimethoxybiphenyl-4-yl)-1-(4-fluorophenyl)-3-[(3S)-3-(4-fluorophenyl)-3-hydroxypropyl]azetidin-2-one] | 17 |  |
| O=C1[C@H](CC[C@H](O)c2ccc(F)cc2)[C@@H](c2ccc(-c3cccc(OC[C@@H](O)[C@@H](O)[C@H](O)[C@@H](O)CO)c3)cc2)N1c1ccc(F)cc1 [Example 78, 6-O-(4′-{(2S,3R)-1-(4-Fluorophenyl)-3-[(3S)-3-(4-fluorophenyl)-3-hydroxypropyl]-4-oxoazetidin-2-yl}biphenyl-3-yl)-D-glucitol] | 51 |  |
| Cc1ccccc1-c1ccc([C@@H]2[C@@H](CC[C@H](O)c3ccc(F)cc3)C(=O)N2c2ccc(F)cc2)cc1 [Example 98, (3R,4S)-1-(4-fluorophenyl)-3-[(3S)-3-(4-fluorophenyl)-3-hydroxypropyl]-4-(2′-methylbiphenyl-4-yl)azetidin-2-one] | 7 |  |
| COC(=O)c1ccc(-c2ccc([C@@H]3[C@@H](CC[C@H](O)c4ccc(F)cc4)C(=O)N3c3ccc(F)cc3)cc2)cc1 [Example 89, methyl 4′-{(2S,3R)-1-(4-fluorophenyl)-3-[(3S)-3-(4-fluorophenyl)-3-hydroxypropyl]-4-oxoazetidin-2-yl}biphenyl-4-carboxylate] | 45 |  |
| O=C1[C@H](CC[C@H](O)c2ccc(F)cc2)[C@@H](c2ccc(-c3cccc(O)c3)cc2O)N1c1ccccc1 [Example 42, (3R,4S)-4-(3,3′-Dihydroxybiphenyl-4-yl)-3-[(3S)-3-(4-fluorophenyl)-3-hydroxypropyl]-1-phenylazetidin-2-one] | 87 |  |
| O=C1[C@H](CC[C@H](O)c2ccc(F)cc2)[C@@H](c2ccc(-c3cccc(O)c3)cc2)N1c1ccc(-c2ccccc2)cc1 [Example 124, (3R,4S)-1-biphenyl-4-yl-3-[(3S)-3-(4-fluorophenyl)-3-hydroxypropyl]-4-(3′-hydroxybiphenyl-4-yl)azetidin-2-one] | 48 |  |
| O=C1[C@H](CC[C@H](O)c2ccc(F)cc2)[C@@H](c2ccc(-c3cccc(P(=O)(O)O)c3)cc2O)N1c1ccccc1 [Example 61, (4′-{(2S,3R)-3-[(3S)-3-(4-Fluorophenyl)-3-hydroxypropyl]-4-oxo-1-phenylazetidin-2-yl}-3′-hydroxybiphenyl-3-yl)phosphonic Acid] |  | % inhibition at 5 mg/kg (5 mg/kg (footnote 3), serum 3H-cholesterol vs vehicle control): 58^3% |
| O=C1[C@H](CC[C@H](O)c2ccc(F)cc2)[C@@H](c2ccc(-c3ccc([C@@H]4O[C@H](CO)[C@@H](O)[C@H](O)[C@H]4O)cc3)cc2O)N1c1ccccc1 [Example 66, (1S)-1,5-Anhydro-1-(4′-{(2S,3R)-3-[(3S)-3-(4-fluorophenyl)-3-hydroxypropyl]-4-oxo-1-phenylazetidin-2-yl}-3′-hydroxybiphenyl-4-yl)-D-glucitol] |  | % inhibition at 0.3 mg/kg (0.3 mg/kg (footnote 6), serum 3H-cholesterol vs vehicle control): 71^6% |
| O=C1[C@H](CC[C@H](O)c2ccc(F)cc2)[C@@H](c2ccc(-c3ccccc3)cc2)N1c1ccc(F)cc1 [Example 3, (3R,4S)-4-Biphenyl-4-yl-1-(4-fluorophenyl)-3-[(3S)-3-(4-fluorophenyl)-3-hydroxypropyl]azetidin-2-one] |  | % inhibition at 10 mg/kg (10 mg/kg (footnote 1), serum 3H-cholesterol vs vehicle control): 15^1% |
| Cc1cccc(-c2ccc([C@@H]3[C@@H](CC[C@H](O)c4ccc(F)cc4)C(=O)N3c3ccc(F)cc3)cc2)c1 [Example 93, (3R,4S)-1-(4-fluorophenyl)-3-[(3S)-3-(4-fluorophenyl)-3-hydroxypropyl]-4-(3′-methylbiphenyl-4-yl)azetidin-2-one] | 28 |  |
| O=C1[C@H](CC[C@H](O)c2ccc(F)cc2)[C@@H](c2ccc(-c3cccc([C@@H]4O[C@@H](CO)[C@H](O)[C@@H](O)[C@@H]4O)c3)cc2)N1c1ccc(F)cc1 [Example 113, (1S)-1,5-anhydro-1-(4′-{(2S,3R)-1-(4-fluorophenyl)-3-[(3S)-3-(4-fluorophenyl)-3-hydroxypropyl]-4-oxoazetidin-2-yl}biphenyl-3-yl)-L-glucitol] | 67 |  |
| COc1cccc(-c2ccc([C@@H]3[C@@H](CC[C@H](O)c4ccc(F)cc4)C(=O)N3c3ccc(F)cc3)cc2)c1 [Example 12, (3R,4S)-1-(4-fluorophenyl)-3-[(3S)-3-(4-fluorophenyl)-3-hydroxypropyl]-4-(3′-methoxybiphenyl-4-yl)azetidin-2-one] | 70 |  |
| O=C1[C@H](CC[C@H](O)c2ccc(F)cc2)[C@@H](c2ccc(-c3cccc(P(=O)(O)O)c3)cc2)N1c1ccccc1 [Example 122, (4′-{(2S,3R)-3-[(3S)-3-(4-fluorophenyl)-3-hydroxypropyl]-4-oxo-1-phenylazetidin-2-yl}biphenyl-3-yl)phosphonic Acid] | 67 |  |
| CS(=O)(=O)c1cccc(-c2ccc([C@@H]3[C@@H](CC[C@H](O)c4ccc(F)cc4)C(=O)N3c3ccccc3)c(O)c2)c1 [Example 123, (3R,4S)-3-[(3S)-3-(4-fluorophenyl)-3-hydroxypropyl]-4-[3-hydroxy-3′-(methylsulfonyl)biphenyl-4-yl]-1-phenylazetidin-2-one] | 72 |  |
| O=C1[C@H](CC[C@H](O)c2ccc(F)cc2)[C@@H](c2ccc(-c3cccc(C(F)(F)F)c3)cc2)N1c1ccc(F)cc1 [Example 92, (3R,4S)-1-(4-fluorophenyl)-3-[(3S)-3-(4-fluorophenyl)-3-hydroxypropyl]-4-[3′-(trifluoromethyl)biphenyl-4-yl]azetidin-2-one] | 17 |  |
| O=C1[C@H](CC[C@H](O)c2ccc(F)cc2)[C@@H](c2ccc(-c3ccc([C@H]4O[C@@H](CO)[C@H](O)[C@@H](O)[C@@H]4O)cc3)cc2)N1c1ccc(F)cc1 [Example 116, (1R)-1,5-anhydro-1-(4′-{(2S,3R)-1-(4-fluorophenyl)-3-[(3S)-3-(4-fluorophenyl)-3-hydroxypropyl]-4-oxoazetidin-2-yl}biphenyl-4-yl)-L-glucitol] | 81 |  |
| O=C1[C@H](CC[C@H](O)c2ccc(F)cc2)[C@@H](c2cccc(-c3cccc(O)c3)c2)N1c1ccc(F)cc1 [Example 44, (3R,4S)-1-(4-fluorophenyl)-3-[(3S)-3-(4-fluorophenyl)-3-hydroxypropyl]-4-(3′-hydroxybiphenyl-3-yl)azetidin-2-one] | 24 |  |
| O=C1[C@H](CC[C@H](O)c2ccc(F)cc2)[C@@H](c2ccc(-c3cccc(O)c3)cc2O)N1c1ccc(F)cc1 [Example 121, (3R,4S)-4-(3,3′-dihydroxybiphenyl-4-yl)-1-(4-fluorophenyl)-3-[(3S)-3-(4-fluorophenyl)-3-hydroxypropyl]azetidin-2-one] | 72 |  |
| CN(C)c1ccc(-c2ccc([C@@H]3[C@@H](CC[C@H](O)c4ccc(F)cc4)C(=O)N3c3ccc(F)cc3)cc2)cc1 [Example 17, (3R,4S)-4-[4′(dimethylamino)biphenyl-4-yl]-1-(4-fluorophenyl)-3-[(3S)-3-(4-fluorophenyl)-3-hydroxypropyl]azetidin-2-one] | 43 |  |

— patent US7320972B2, “4-Biarylyl-1-phenylazetidin-2-ones” (Microbia, Inc., priority 2003, dated 2008)
